Results taken from ChEMBL document CHEMBL1201862, “PubChem BioAssay data set” (2004).
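Results reflect a 48-hour exposure of cells in 96-well plates to compound at five concentrations. GI50: concentration for 50% inhibition of growth.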 The source made the active and inactive calls. Cut-off read from the data, not from the text of the source: active = GI50 up to about 1.1 µM and inactive = higher.

Key:
Test in all cases: growth of human tumour cells (NCI), 48 h
[1] = system: SR
[2] = system: UACC-257
[3] = system: 786-0
[4] = system: Hs-578T
[5] = system: PC-3
[6] = system: NCI-H23
[7] = system: RPMI-8226
[8] = system: HOP-92
[9] = system: MOLT-4
[10] = system: SF-295
[11] = system: BT-549
[12] = system: OVCAR-8
[13] = system: SK-MEL-2
[14] = system: MDA-N
[15] = system: NCI-H460
[16] = system: TK-10
[17] = system: MDA-MB-231
[18] = system: A549
[19] = system: HCT-15
[20] = system: NCI-H226
[21] = system: SK-MEL-5
[22] = system: MCF7
[23] = system: DU-145
[24] = system: HL-60
[25] = system: OVCAR-5
[26] = system: RXF 393
[27] = system: IGROV-1
[28] = system: HCT-116
[29] = system: A498
[30] = system: HCC 2998
[31] = system: NCI-H522
[32] = system: SNB-19
[33] = system: T47D
[34] = system: KM12
[35] = system: HOP-62
[36] = system: SF-268
[37] = system: MDA-MB-435
[38] = system: SK-MEL-28
[39] = system: ACHN
[40] = system: UO-31
[41] = system: U-251
[42] = system: CAKI-1
[43] = system: Malme-3M
[44] = system: COLO 205
[45] = system: SW-620
[46] = system: SK-OV-3
[47] = system: UACC-62
[48] = system: NCI/ADR-RES
[49] = system: M14
[50] = system: K562
[51] = system: HT-29
[52] = system: SN12C
[53] = system: CCRF-CEM
[54] = system: EKVX
[55] = system: LOX IMVI
[56] = system: OVCAR-4
[57] = system: SF-539
[58] = system: SNB-75
[59] = system: OVCAR-3

In the case of `O=C1c2ccccc2C(=O)N1CCSCC(CO)SCCN1C(=O)c2ccccc2C1=O` (stereo not given), the GI50 [1] is reported as > 100 µM (inactive), the GI50 [2] is reported as > 100 µM (inactive) and the GI50 [3] is reported as > 100 µM (inactive). For the same compound, the GI50 [4] was > 100 µM (inactive), the GI50 [5] was > 100 µM (inactive) and the GI50 [6] was > 100 µM (inactive). For the same compound, the GI50 [7] was 80.2 µM (inactive), the GI50 [8] was > 100 µM (inactive) and the GI50 [9] was 74 µM (inactive). The GI50 [10] was > 100 µM (inactive), the GI50 [11] was > 100 µM (inactive) and the GI50 [12] was > 100 µM (inactive). The GI50 [13] was > 100 µM (inactive), the GI50 [14] was > 100 µM (inactive) and the GI50 [15] was > 100 µM (inactive). For the same compound, the GI50 [16] was > 100 µM (inactive), the GI50 [17] was > 100 µM (inactive) and the GI50 [18] was > 100 µM (inactive). The GI50 [19] was greater than 100 µM, the GI50 [20] was > 100 µM (inactive) and the GI50 [21] was > 100 µM (inactive). For the same compound, the GI50 [22] was > 100 µM (inactive), the GI50 [23] was > 100 µM (inactive) and the GI50 [24] was 9.98 µM (inactive). The GI50 [25] was > 100 µM (inactive), the GI50 [26] was > 100 µM (inactive) and the GI50 [27] was > 100 µM (inactive). The GI50 [28] was > 100 µM (inactive), the GI50 [29] was > 100 µM (inactive) and the GI50 [30] was > 100 µM (inactive). For the same compound, the GI50 [31] was 62.5 µM (inactive), the GI50 [32] was > 100 µM (inactive) and the GI50 [33] was 86.9 µM (inactive). For the same compound, the GI50 [34] was > 100 µM (inactive), the GI50 [35] was > 100 µM (inactive) and the GI50 [36] was > 100 µM (inactive). The GI50 [37] was > 100 µM (inactive), the GI50 [38] was > 100 µM (inactive) and the GI50 [39] was > 100 µM (inactive). The GI50 [40] was > 100 µM (inactive), the GI50 [41] was > 100 µM (inactive) and the GI50 [42] was > 100 µM (inactive). The GI50 [43] was > 100 µM (inactive), the GI50 [44] was > 100 µM (inactive) and the GI50 [45] was > 100 µM (inactive). For the same compound, the GI50 [46] was > 100 µM (inactive), the GI50 [47] was 90.2 µM (inactive) and the GI50 [48] was 74.8 µM (inactive). The GI50 [49] was 96.8 µM (inactive), the GI50 [50] was 75.3 µM (inactive) and the GI50 [51] was > 100 µM (inactive). For the same compound, the GI50 [52] was > 100 µM (inactive), the GI50 [53] was 59.8 µM (inactive) and the GI50 [54] was 91 µM (inactive). The GI50 [55] was > 100 µM (inactive) and the GI50 [56] was 48.6 µM (inactive).

In the case of `Cn1c2c(c3c(=O)[nH]ncc31)Cc1ccccc1-2`, the GI50 [1] is reported as 3.79 µM (inactive), the GI50 [2] is reported as 10.8 µM (inactive) and the GI50 [3] is reported as 6.37 µM (inactive). The GI50 [4] was 26.5 µM (inactive), the GI50 [5] was 21.5 µM (inactive) and the GI50 [6] was 24.3 µM (inactive). The GI50 [7] was 15.9 µM (inactive), the GI50 [8] was 25.2 µM (inactive) and the GI50 [9] was 3.45 µM (inactive). For the same compound, the GI50 [10] was 4.33 µM (inactive), the GI50 [11] was 18.3 µM (inactive) and the GI50 [12] was 11.7 µM (inactive). For the same compound, the GI50 [13] was 21.3 µM (inactive), the GI50 [14] was 12.9 µM (inactive) and the GI50 [15] was 3.04 µM (inactive). For the same compound, the GI50 [16] was 5.81 µM (inactive), the GI50 [17] was 14 µM (inactive) and the GI50 [18] was 6.56 µM (inactive). The GI50 [19] was 11.1 µM, the GI50 [20] was 13.8 µM (inactive) and the GI50 [21] was 12.2 µM (inactive). For the same compound, the GI50 [22] was 11.5 µM (inactive), the GI50 [57] was 19.2 µM (inactive) and the GI50 [23] was 10.6 µM (inactive). For the same compound, the GI50 [24] was 14.7 µM (inactive), the GI50 [25] was 31.1 µM (inactive) and the GI50 [26] was 15.5 µM (inactive). The GI50 [27] was 6.79 µM (inactive), the GI50 [28] was 3.64 µM (inactive) and the GI50 [29] was 6.62 µM (inactive). The GI50 [58] was 16.1 µM (inactive), the GI50 [31] was 17.8 µM (inactive) and the GI50 [32] was 18.2 µM (inactive). The GI50 [33] was 25.6 µM (inactive), the GI50 [34] was 16.3 µM (inactive) and the GI50 [35] was 22.5 µM (inactive). The GI50 [36] was 12 µM (inactive), the GI50 [37] was 14.3 µM (inactive) and the GI50 [38] was 24.4 µM (inactive). The GI50 [39] was 5.07 µM (inactive), the GI50 [40] was 5.53 µM (inactive) and the GI50 [41] was 13.5 µM (inactive). For the same compound, the GI50 [42] was 13.3 µM (inactive), the GI50 [43] was 16.3 µM (inactive) and the GI50 [44] was 10.9 µM (inactive). The GI50 [45] was 7.24 µM (inactive), the GI50 [46] was 6.49 µM (inactive) and the GI50 [48] was 16 µM (inactive). For the same compound, the GI50 [49] was 15.6 µM (inactive), the GI50 [50] was 18.2 µM (inactive) and the GI50 [59] was 12.7 µM (inactive). For the same compound, the GI50 [51] was 9.64 µM (inactive), the GI50 [52] was 7.62 µM (inactive) and the GI50 [53] was 9.1 µM (inactive). For the same compound, the GI50 [54] was 22.7 µM (inactive), the GI50 [55] was 6.65 µM (inactive) and the GI50 [56] was 21.3 µM (inactive).

With `O=C1CC(=O)NC(NN2C(=O)/C(=C/C(=O)c3ccco3)N=C2c2ccccc2)=N1` the GI50 [1] was 14.6 µM (inactive), the GI50 [2] was 92.3 µM (inactive) and the GI50 [3] was > 100 µM (inactive). The GI50 [4] was 27.7 µM (inactive), the GI50 [5] was 29.4 µM (inactive) and the GI50 [6] was > 100 µM (inactive). For the same compound, the GI50 [8] was 24.8 µM (inactive), the GI50 [9] was 22.9 µM (inactive) and the GI50 [10] was 94.2 µM (inactive). For the same compound, the GI50 [11] was 36.6 µM (inactive), the GI50 [12] was 44.5 µM (inactive) and the GI50 [13] was 92.7 µM (inactive). The GI50 [14] was 77.3 µM (inactive), the GI50 [15] was 30.3 µM (inactive) and the GI50 [16] was > 100 µM (inactive). For the same compound, the GI50 [17] was > 100 µM (inactive), the GI50 [18] was > 100 µM (inactive) and the GI50 [19] was greater than 100 µM. The GI50 [20] was > 100 µM (inactive), the GI50 [22] was 95.1 µM (inactive) and the GI50 [57] was 44.1 µM (inactive). For the same compound, the GI50 [23] was > 100 µM (inactive), the GI50 [25] was > 100 µM (inactive) and the GI50 [26] was 66.8 µM (inactive). For the same compound, the GI50 [27] was 43.3 µM (inactive), the GI50 [28] was > 100 µM (inactive) and the GI50 [29] was > 100 µM (inactive). The GI50 [30] was > 100 µM (inactive), the GI50 [58] was 22.2 µM (inactive) and the GI50 [31] was 17.7 µM (inactive). For the same compound, the GI50 [33] was 70.1 µM (inactive), the GI50 [34] was 30.5 µM (inactive) and the GI50 [35] was > 100 µM (inactive). For the same compound, the GI50 [36] was > 100 µM (inactive), the GI50 [37] was 63.7 µM (inactive) and the GI50 [38] was > 100 µM (inactive). For the same compound, the GI50 [39] was > 100 µM (inactive), the GI50 [40] was 57.8 µM (inactive) and the GI50 [41] was 47.5 µM (inactive). For the same compound, the GI50 [42] was > 100 µM (inactive), the GI50 [43] was 7 µM (inactive) and the GI50 [44] was > 100 µM (inactive). For the same compound, the GI50 [45] was 73.6 µM (inactive), the GI50 [46] was > 100 µM (inactive) and the GI50 [47] was 37.7 µM (inactive). For the same compound, the GI50 [48] was 41.1 µM (inactive), the GI50 [49] was 92.3 µM (inactive) and the GI50 [59] was 42.4 µM (inactive). The GI50 [51] was > 100 µM (inactive), the GI50 [52] was > 100 µM (inactive) and the GI50 [53] was 20.6 µM (inactive). The GI50 [56] was 31 µM (inactive).
